Source: ChEMBL document CHEMBL5303304, “EUbOPEN Chemogenomics Library - IncuCyte” (2023)

Key:
Assay type in all cases: toxicity, cell-based
HEK-293T = experiment: Incucyte cell viability with HEK293T; settings: human, 10 µM, compound concentration 10 uM
Fibroblast = experiment: Incucyte cell viability with human fibroblast; settings: 10 µM, compound concentration 10 uM
U2OS = experiment: Incucyte cell viability with U2OS; settings: human, 10 µM, compound concentration 10 uM
Also: unitless GR value; below 1 slowed growth and below 0 cell loss.

Structure (SMILES)	Growth Rate (HEK-293T; 6 h, replicate number 1)	Growth Rate (HEK-293T; 6 h, replicate number 2)	Growth Rate (HEK-293T; 12 h, replicate number 2)	Growth Rate (HEK-293T; 18 h, replicate number 2)	Growth Rate (HEK-293T; 24 h, replicate number 2)	Growth Rate (Fibroblast; 0 h, replicate number 2)	Growth Rate (Fibroblast; 6 h, replicate number 1)	Growth Rate (Fibroblast; 18 h, replicate number 1)	Growth Rate (U2OS; 12 h, replicate number 2)	Growth Rate (U2OS; 18 h, replicate number 1)	Growth Rate (U2OS; 18 h, replicate number 2)	Growth Rate (U2OS; 24 h, replicate number 2)	Growth Rate (HEK-293T; 12 h, replicate number 1)	Growth Rate (HEK-293T; 18 h, replicate number 1)	Growth Rate (HEK-293T; 0 h, replicate number 2)	Growth Rate (Fibroblast; 6 h, replicate number 2)	Growth Rate (Fibroblast; 12 h, replicate number 2)	Growth Rate (Fibroblast; 18 h, replicate number 2)	Growth Rate (Fibroblast; 24 h, replicate number 1)	Growth Rate (Fibroblast; 24 h, replicate number 2)	also measured
CCC(=N\O)/C(C)=C/c1ccc(F)cc1 [A-079]	0.09	-0.79	-0.09	0.33	0.57	-0.47	0.02	0.86	0.89	1	0.78	0.79	–	–	–	–	–	–	–	–	Growth Rate (U2OS; 0 h, replicate number 2): -0.97; Growth Rate (U2OS; 6 h, replicate number 1): 0.53; Growth Rate (U2OS; 6 h, replicate number 2): 0.16
CCC(C)(C)NC(=NC#N)Nc1cccnc1	0.19	0.56	0.56	0.78	0.95	–	-1	–	0.85	1	–	–	0.42	0.64	–	–	–	–	–	–	Growth Rate (HEK-293T; 24 h, replicate number 1): 0.85; Growth Rate (U2OS; 0 h, replicate number 2): -0.68
CC[C@H]1[C@@H](O)[C@@H]2[C@H](CC[C@]3(C)[C@@H]([C@H](C)CCC(=O)O)CC[C@@H]23)[C@@]2(C)CC[C@@H](O)C[C@@H]12 [OBETICHOLIC ACID]	–	0.83	0.96	–	–	–	0.39	0.82	–	–	–	–	–	–	-0.65	0.74	0.62	0.87	0.9	0.95	Growth Rate (HEK-293T; 0 h, replicate number 1): 0.42; Growth Rate (Fibroblast; 12 h, replicate number 1): 0.91; Growth Rate (U2OS; 6 h, replicate number 1): -0.88; Growth Rate (U2OS; 12 h, replicate number 1): 0.87
O=C1C[C@@H]2OCC=C3CN4CC[C@]56c7ccccc7N1[C@H]5[C@H]2[C@H]3C[C@H]46 [STRYCHNINE]	–	0.44	0.86	–	–	-0.75	0.71	0.57	0.85	0.88	0.77	0.91	–	–	0.94	–	–	0.93	0.81	0.91	Growth Rate (HEK-293T; 0 h, replicate number 1): 0.93; Growth Rate (Fibroblast; 12 h, replicate number 1): -0.92; Growth Rate (U2OS; 6 h, replicate number 2): 0.65; Growth Rate (U2OS; 12 h, replicate number 1): 0.95; Growth Rate (U2OS; 24 h, replicate number 1): 0.87
COc1cccc(Cn2cc(C(=O)Nc3ccc(C)c(S(=O)(=O)N4CCOCC4)c3)c(-c3ccc(C)cc3)n2)c1	0.76	–	–	–	–	0.55	0.43	0.89	–	–	–	–	–	0.99	-0.05	0.77	–	–	–	–	Growth Rate (HEK-293T; 24 h, replicate number 1): 0.96; Growth Rate (Fibroblast; 12 h, replicate number 1): 0.7; Growth Rate (U2OS; 12 h, replicate number 1): 0.96
OCC1OC(n2cnc3cc(Cl)c(Cl)cc32)C(O)C1O (stereo not drawn)	0.33	0.29	0.83	0.74	0.82	-0.97	–	–	–	0.33	0.94	–	0.43	0.48	0.84	0.4	0.42	0.86	0.84	0.78	Growth Rate (HEK-293T; 0 h, replicate number 1): 0.64; Growth Rate (HEK-293T; 24 h, replicate number 1): 0.55; Growth Rate (Fibroblast; 0 h, replicate number 1): -0.9; Growth Rate (U2OS; 0 h, replicate number 2): 0.83; Growth Rate (U2OS; 6 h, replicate number 2): 0.95; Growth Rate (U2OS; 12 h, replicate number 1): 0.53
N#Cc1cccc(-c2nc(-c3cccnc3)no2)c1	0.4	0.1	0.6	0.95	–	–	–	-0.08	–	–	1	–	–	–	–	0.7	0.88	0.55	0.19	0.92	Growth Rate (Fibroblast; 0 h, replicate number 1): -0.49; Growth Rate (Fibroblast; 12 h, replicate number 1): -0.97; Growth Rate (U2OS; 0 h, replicate number 2): -0.52; Growth Rate (U2OS; 12 h, replicate number 1): 0.67
O=C(Nc1ccccc1C(=O)O)c1cc(S(=O)(=O)c2ccccc2)ccc1Cl	0.7	–	0.88	0.41	0.34	-0.73	–	–	0.55	0.96	0.65	0.8	0.52	0.3	-0.73	–	–	–	–	–	Growth Rate (HEK-293T; 0 h, replicate number 1): -0.5; Growth Rate (HEK-293T; 24 h, replicate number 1): 0.24; Growth Rate (U2OS; 0 h, replicate number 2): 0.97; Growth Rate (U2OS; 24 h, replicate number 1): 0.79
CCNc1ccc(-c2nn(-c3ccccc3C)c3c2C(C)Cc2nc(NC(=O)OC)sc2-3)cn1.O=C(O)C(F)(F)F (stereo not drawn)	-0.42	0.14	-0.12	0.03	-0.01	–	-0.81	-0.28	0.24	0.27	0.25	0.07	-0.41	-0.23	-0.93	-0.7	-0.37	-0.19	-0.11	-0.06	Growth Rate (HEK-293T; 24 h, replicate number 1): -0.1; Growth Rate (Fibroblast; 12 h, replicate number 1): -0.55; Growth Rate (U2OS; 0 h, replicate number 1): -0.28; Growth Rate (U2OS; 6 h, replicate number 1): 0.5; Growth Rate (U2OS; 6 h, replicate number 2): 0.13; Growth Rate (U2OS; 12 h, replicate number 1): 0.39; Growth Rate (U2OS; 24 h, replicate number 1): -0.06
Cc1cc(O)c(-c2ccc([C@@H](C)CN(C)C)cc2)c2c1[nH]c(=O)c1sccc12	-0.94	-0.93	-0.74	-0.54	-0.41	0.6	-1	–	0.43	0.16	0.08	-0.1	-0.89	-0.72	–	-0.58	-0.46	-0.35	0.28	-0.3	Growth Rate (HEK-293T; 24 h, replicate number 1): -0.64; Growth Rate (Fibroblast; 0 h, replicate number 1): 0.34; Growth Rate (U2OS; 0 h, replicate number 1): -0.87; Growth Rate (U2OS; 0 h, replicate number 2): -0.95; Growth Rate (U2OS; 12 h, replicate number 1): 0.42; Growth Rate (U2OS; 24 h, replicate number 1): -0.11
O=C([O-])c1cc2cc(Cc3cccnc3)ccc2o1.[Na+]	0.1	0.83	–	–	–	–	0.42	–	0.98	1	–	–	0.56	–	0.2	–	0.64	–	–	–	Growth Rate (U2OS; 0 h, replicate number 1): -0.13; Growth Rate (U2OS; 6 h, replicate number 1): 0.77; Growth Rate (U2OS; 12 h, replicate number 1): 0.4; Growth Rate (U2OS; 24 h, replicate number 1): 0.71
NC(=O)c1cc(-c2ccnc(NC3CCCCC3)c2)nc(N2CCNCC2)c1	–	–	0.31	0.26	0.44	0.79	0.63	–	–	0.84	0.9	0.72	0.54	0.8	-0.65	-0.77	0.39	0.65	–	0.36	Growth Rate (HEK-293T; 0 h, replicate number 1): -0.55; Growth Rate (Fibroblast; 0 h, replicate number 1): -0.81; Growth Rate (Fibroblast; 12 h, replicate number 1): -1; Growth Rate (U2OS; 24 h, replicate number 1): 0.61
N#Cc1ccc(C#CC[C@@H](C#N)NC(=O)[C@H]2CCCCN2)cc1F.O=C(O)C(F)(F)F	–	–	–	–	–	–	0.94	0.86	0.78	–	0.73	0.73	–	–	-0.1	–	–	–	0.92	–	Growth Rate (Fibroblast; 0 h, replicate number 1): -1; Growth Rate (U2OS; 0 h, replicate number 2): 0.12; Growth Rate (U2OS; 6 h, replicate number 1): 0.86; Growth Rate (U2OS; 6 h, replicate number 2): 0.95
Cc1cc(CN(CC(=O)Nc2ccc(Cl)cc2Cl)C2CCCCC2)ccc1OCC(=O)O	–	–	–	–	–	-0.93	–	–	0.97	–	–	–	–	–	0.19	0.35	0.9	0.88	–	0.87	Growth Rate (HEK-293T; 0 h, replicate number 1): 0.78; Growth Rate (U2OS; 6 h, replicate number 1): 0.64
CCOC(=O)C1Cc2ccccc2CN1C(=O)c1ccc(SC)s1 (stereo not drawn)	0.05	0.28	0.49	0.5	0.5	–	–	0.58	–	–	0.98	0.88	0.12	0.47	-0.82	0.06	0.1	0.63	0.86	0.67	Growth Rate (HEK-293T; 24 h, replicate number 1): 0.41; Growth Rate (Fibroblast; 12 h, replicate number 1): 0.66; Growth Rate (U2OS; 6 h, replicate number 1): 0.96; Growth Rate (U2OS; 6 h, replicate number 2): 0.87
